Measured values published in patent publication US12649748B2, “Wee1 inhibitor and use thereof” (JIANGSU TASLY DIYI PHARMACEUTICAL CO., LTD., priority 2021, dated 2026).
Converted amounts (≈) assume the structure as drawn.

What was measured:
[1] = Plasma protein binding (PPB), rat; format: in vitro ADME; details: 5 h dialysis, read-out: Plasma protein binding rate (%) Rat (converted)
Procedure: (§1) Sample preparation: The compound was dissolved in DMSO to a stock solution of 10 mM, then the compound was diluted with PBS to a secondary stock solution of 0.02 mM, and then the above 0.02 mM was diluted to 1 μM using blank plasma, which was the sample to be incubated.
(§2) Dialysis set-up preparation: 400 μL of blank PBS was first added to the white wells of the equilibrated dialysis plate and 200 μL of the configured plasma sample was added to the red wells, and the dialysis plate was sealed with a sealing film.
(§3) Recovery plate preparation: Two 96-well deep-well plates, labelled T0 and T5, were prepared and all plasma samples were added at n=2. 300 μL of acetonitrile (Verapamil-HCl, 4 ng/mL) was added directly to the TO plate, followed by 50 μL of blank PBS mix well for 5 min and left to stand in a 4° C. refrigerator until the end of the incubation.
(§4) Experimental Operation: The dialysis device and the T5 plate were incubated together for 5 h in a microplate thermostatic shaker (37° C., using 300 rpm or minimum speed). At the end of the incubation, 300 μL of acetonitrile (Verapamil-HCl, 4 ng/mL) was added and 50 μL of PBS solution was added. At the end of the dialysis incubation, a new 96-well deep well plate was taken. Add 50 μL of plasma well sample to the corresponding position of the 96-well plate, 300 μL of acetonitrile and 50 μL of blank PBS; take 50 μL of buffer well sample to the corresponding position of the 96-well plate, then add 300 μL of acetonitrile and 50 μL of blank plasma. Add 300 μL of acetonitrile (Verapamil-HCl, 4 ng/mL) to the plasma-containing wells of the T5 plate, and then 50 μL of PBS solution was added. Shake for 5 min to fully precipitate the proteins and centrifuge at 20,000 g for 10 min at 4° C. Add 200 μL of supernatant to 200 μL of pure water, mix well and perform LC-MS/MS analysis.
(§5) 2. Data Processing and Parameter Calculation Plasma protein binding rate=[(Rpe−Rb)/Rpe]×100% Recovery=[(Rpe+Rb)/R5h]×100% Stability=(R5/R0)×100% where • Rpe=ratio of plasma-side testing sample peak area to internal standard • Rb=ratio of buffer side testing sample peak area to internal standard • R5=ratio of incubator stability sample peak area to internal standard • R0=ratio of refrigerator stability sample peak area to internal standard 3.

[2] = Metabolic stability of liver microsomes in vitro (mouse); format: in vitro ADME; details: read-out: Mouse T1/2/min
Procedure: Microsomes were taken out from the −80° C. refrigerator, rapidly melted in a 37° C. water bath and placed on ice until ready to use. The test article was diluted with DMSO to prepare a 10 mM stock solution, and then diluted with acetonitrile to a 0.5 mM secondary stock solution. The microsomes were diluted to 0.75 mg/ml using Buffer C; the secondary stock solution was then added to a final concentration of 1.5 μM of compound as working solution, based on n=2, 5 time points, 350 μL of each compound was prepared and placed on ice prior to use. NADPH was diluted with Buffer C to a working solution of 6 mM for the starter solution. An acetonitrile solution containing an internal standard was prepared as the precipitant, and Verapamil-HCl was chosen as the internal standard at a concentration of 4 ng/ml.
A round-bottom well plate was taken, noted as the reaction plate, and the prepared working solution for each compound was dispensed into the well plate according to the number of replicates and time points (0 h samples are also added to the reaction plate), 30 μL/well; the plate was incubated at 37° C. for 10 min. A separate plate with pointed bottom wells, noted as a precipitation plate, was added with 135 μL precipitant per well; 0 h samples were transferred to the plate after 10 min incubation and 15 μL of starter solution was added; the plate was placed on ice before centrifugation.
The diluted starter solution was added in sufficient quantity to the dispensing plate to facilitate the multichannel pipette aspiration operation.
The reaction was carried out on a warm incubation shaker and 15 μL of starter solution/sample is added to the plate using a multichannel pipette. The reaction was mixed with a slight shake to initiate the reaction, which was accurately timed and recorded using a timer;
After the reaction time had elapsed, all the solution in the plate was aspirated using the multichannel pipette and added to the precipitation plate to terminate the reaction at that point in time. After all reactions had been terminated, the plates were shaken for ten minutes on a plate shaker at 600 rpm to precipitate the protein. The plate was centrifuged at 4° C. for 15 minutes at maximum rpm. 80 μL of supernatant was taken, 320 μL of pure water was added and mixed for LC-MS analysis.

Solubility test = format: physicochemical; details: aqueous buffer, thermodynamic from solid; buffer solution, shaken at constant temperature 24 h
Procedure: The compound was placed in a buffer solution and shaken at constant temperature for 24 h. […] Chromatographic conditions: C18 column, mobile phase A: 0.02 M potassium dihydrogen phosphate:acetonitrile=90:10, mobile phase B: acetonitrile; V: 1.0 ml/min, T: 35° C., λ: 210 nm.

[3] = Plasma protein binding (PPB), mouse; format: in vitro ADME; details: 5 h dialysis, read-out: Plasma protein binding rate (%) Mouse (converted)
Procedure: as §1, §2, §3, §4, §5

CYP2C8 = biological target: T1, CYP2C8 (Homo sapiens, UniProt P10632); assay: Inhibition of cytochrome P450, CYP2C8; format: in vitro ADME; details: CYP2C8 enzyme, pH 7.4, probe DBOMF, read-out: CYP inhibition/% 2C8; for inhibition at 30 min, 1 µM: compound concentration 1 μM; for inhibition at 30 min, 10 µM: compound concentration 10 μM
T1 sequence (P10632 1-490): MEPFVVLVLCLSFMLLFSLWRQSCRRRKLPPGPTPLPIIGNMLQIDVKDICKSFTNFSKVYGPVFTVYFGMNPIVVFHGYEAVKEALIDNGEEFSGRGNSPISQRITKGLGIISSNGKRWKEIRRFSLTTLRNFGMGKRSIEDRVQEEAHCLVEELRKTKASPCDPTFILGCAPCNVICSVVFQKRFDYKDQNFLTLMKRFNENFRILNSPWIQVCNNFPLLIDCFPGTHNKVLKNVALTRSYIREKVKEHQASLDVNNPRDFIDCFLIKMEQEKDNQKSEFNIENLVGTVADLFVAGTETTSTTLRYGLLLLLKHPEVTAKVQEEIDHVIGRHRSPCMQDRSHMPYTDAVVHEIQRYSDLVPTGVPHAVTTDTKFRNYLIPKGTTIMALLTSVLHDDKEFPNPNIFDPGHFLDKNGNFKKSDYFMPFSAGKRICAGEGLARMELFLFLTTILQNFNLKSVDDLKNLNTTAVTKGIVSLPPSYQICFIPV
Procedure: Enzymatic experiments were performed to quantify the inhibition of CYP450 enzyme activity of each isoform of CYP450 by small molecule inhibitors through fluorescence generated by the oxidation of the substrate by cytochrome P450. […] The Solution B composition used for the experiment was: 40 U/mL G6PDH (Sigma-aldrich, Cat #G6378). The substrate mix was 0.05× Solution A, 0.01× Solution B, 50 mM Potassium Phosphate, 0.01 mM BOMCC/0.01 mM EOMCC/0.001 mM DBOMF. […] The data were analyzed and processed using GraphPad Prism 6 software to obtain IC50 values.

**Q.** Which results are given for `C=CCn1c(=O)c2cnc(Nc3ccc(N4CCN(C)CC4)cc3)nc2n1-c1cccc(C(C)(C)O)n1` [AZD-1775, reference compound]?
**A.** fraction unbound at 5 h, 1 µM [1]: 0.374; half-life at 1 µM [2]: 30.1 min; solubility at 24 h (Solubility test): 30 µg/mL (≈ 59.9 µM); fraction unbound at 5 h, 1 µM [3]: 0.087

**Q.** Which fraction unbound at 5 h, 1 µM [1] does the source give for `Cc1cc(Nc2ncc3cnn(-c4cccc(N=S(C)(C)=O)n4)c3n2)ccc1N1CCC(N(C)C)CC1` [Compound 14] here?
**A.** The fraction unbound at 5 h, 1 µM was 0.246.

**Q.** And the half-life at 1 µM [2]?
**A.** The half-life at 1 µM was 67.3 min.

**Q.** And the fraction unbound at 5 h, 1 µM [3]?
**A.** Its fraction unbound at 5 h, 1 µM is 0.138.

**Q.** For `Cc1cc(Nc2ncc3cnn(-c4cccc(N=S(C)(C)=O)n4)c3n2)ccc1N1CCN(C)CC1` [Compound 16], which fraction unbound at 5 h, 1 µM [1] is on record?
**A.** The fraction unbound at 5 h, 1 µM was 0.179.

**Q.** What about the half-life at 1 µM [2] of the same compound?
**A.** The half-life at 1 µM was 8.9 min.

**Q.** And the solubility at 24 h (Solubility test)?
**A.** The solubility at 24 h was 350 µg/mL (≈ 712 µM).

**Q.** What about the fraction unbound at 5 h, 1 µM [3] of the same compound?
**A.** The fraction unbound at 5 h, 1 µM was 0.092.

**Q.** With `CS(C)(=O)=Nc1cccc(-n2ncc3cnc(Nc4ccc(N5CCOCC5)cc4)nc32)n1` [Compound 6] as the compound, how does the inhibition at 30 min, 1 µM (CYP2C8) read?
**A.** Its inhibition at 30 min, 1 µM is -14.3%.

**Q.** And the inhibition at 30 min, 10 µM (CYP2C8)?
**A.** The inhibition at 30 min, 10 µM was 20.9%.

**Q.** For `CN1CCN(c2ccc(Nc3ncc4cnn(-c5cccc(N=S(C)(C)=O)n5)c4n3)cc2)CC1` [Compound 1], which fraction unbound at 5 h, 1 µM [1] is on record?
**A.** The fraction unbound at 5 h, 1 µM was 0.404.

**Q.** What about the half-life at 1 µM [2] of the same compound?
**A.** Its half-life at 1 µM is 60.3 min.

**Q.** What about the solubility at 24 h (Solubility test) of the same compound?
**A.** Its solubility at 24 h is 120 µg/mL (≈ 251 µM).

**Q.** And the inhibition at 30 min, 1 µM (CYP2C8)?
**A.** The inhibition at 30 min, 1 µM was -5.3%.

**Q.** And the inhibition at 30 min, 10 µM (CYP2C8)?
**A.** The inhibition at 30 min, 10 µM was 3.2%.

**Q.** What about the fraction unbound at 5 h, 1 µM [3] of the same compound?
**A.** The fraction unbound at 5 h, 1 µM was 0.226.

**Q.** Which half-life at 1 µM [2] does the source give for `CN1CCN(c2ccc(Nc3ncc4cnn(-c5cccc(C(C)(C)O)n5)c4n3)cc2)CC1` [Compound 2] here?
**A.** The half-life at 1 µM was 15.6 min.

**Q.** What about the inhibition at 30 min, 1 µM (CYP2C8) of the same compound?
**A.** Its inhibition at 30 min, 1 µM is -11%.

**Q.** And the inhibition at 30 min, 10 µM (CYP2C8)?
**A.** The inhibition at 30 min, 10 µM was 0.24%.
